# From patent US11617356B2, “Mouse lymphoma cell line and animal model of human high grade B-cell lymphoma” (PÉCSI TUDOMÁNYEGYETEM, priority 2015, dated 2023)
# System: Bc-DLFL.1 cells
# Assay: short-term in vitro survival of Bc-DLFL.1 cells on addition of recombinant BAFF
# Format: cell-based, mouse
# Settings: addition of recombinant BAFF to culture; data not shown
# Description: The specific conditions needed to propagate Bc-DLFL.1 raised the dependence of this lymphoma for tissue-derived factors for survival. The most likely candidates are the different receptors for BAFF. […] In normal B-cell development, TACI and BCMA is expressed following activation during plasmacytic differentiation, while BAFF-R disappears. BAFF-R is more characteristic of mature resting B-cells.
substance,measurement,value
"recombinant BAFF: recombinant BAFF, ligand of BAFF-R, BCMA and TACI, added to Bc-DLFL.1 cells in vitro",short-term in vitro survival of Bc-DLFL.1 cells,moderately increased
